Measurements from PubChem BioAssay (NCI).
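Following 48 hours of exposure in 96-well plates, responses at five concentrations were used to interpolate endpoints linearly. TGI is the concentration that stops growth completely.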

How the values were obtained:
Test in all cases: NCI tumour cell line growth inhibition, 48 h
[1] = test system: NCI-H23 lung
[2] = test system: HOP-18 NSCLC
[3] = test system: HCC-2998 colon
[4] = test system: TK-10 renal
[5] = test system: SN12C renal
[6] = test system: SF-268 CNS
[7] = test system: CAKI-1 renal
[8] = test system: SK-MEL-5 melanoma
[9] = test system: M19-MEL melanoma
[10] = test system: SK-MEL-2 melanoma
[11] = test system: DMS 273 small cell lung
[12] = test system: SF-295 CNS
[13] = test system: HCT-15 colon
[14] = test system: NCI-H226 lung
[15] = test system: SNB-75 CNS
[16] = test system: XF 498 CNS
[17] = test system: DMS 114 small cell lung
[18] = test system: SF-539 CNS
[19] = test system: HT29 colon
[20] = test system: UACC-62 melanoma
[21] = test system: M14 melanoma
[22] = test system: A549 NSCLC
[23] = test system: HCT-116 colon
[24] = test system: EKVX NSCLC
[25] = test system: U251 CNS
[26] = test system: OVCAR-8 ovarian
[27] = test system: SK-MEL-28 melanoma
[28] = test system: KM20L2 colon
[29] = test system: SW-620 colon
[30] = test system: ACHN renal
[31] = test system: SK-OV-3 ovarian
[32] = test system: LOX IMVI melanoma
[33] = test system: SNB-78 CNS
[34] = test system: LXFL 529 NSCLC
[35] = test system: OVCAR-3 ovarian
[36] = test system: K-562 leukemia
[37] = test system: CCRF-CEM leukemia
[38] = test system: UACC-257 melanoma
[39] = test system: MOLT-4 leukemia
[40] = test system: NCI-H460 lung
[41] = test system: OVCAR-4 ovarian
[42] = test system: HOP-62 NSCLC
[43] = test system: RPMI-8226 leukemia
[44] = test system: IGROV1 ovarian
[45] = test system: 786-0 renal
[46] = test system: DLD-1 colon
[47] = test system: OVCAR-5 ovarian
[48] = test system: NCI-H522 lung
[49] = test system: COLO 205 colon
[50] = test system: UO-31 renal
[51] = test system: SNB-19 CNS
[52] = test system: MALME-3M melanoma
[53] = test system: RXF 393 renal
[54] = test system: HOP-92 NSCLC
[55] = test system: SR leukemia
[56] = test system: RXF-631 renal
[57] = test system: KM12 colon
[58] = test system: A498 renal

O=C(O)[C@H](NS(=O)(=O)c1ccc(F)cc1)c1ccccc1
TGI [1]: > 100 µM | TGI [2]: > 100 µM | TGI [3]: > 100 µM | TGI [4]: > 100 µM | TGI [5]: > 100 µM | TGI [6]: > 100 µM | TGI [7]: > 100 µM | TGI [8]: > 100 µM | TGI [9]: > 100 µM | TGI [10]: > 100 µM | TGI [11]: > 100 µM | TGI [12]: > 100 µM | TGI [13]: > 100 µM | TGI [14]: > 100 µM | TGI [15]: > 100 µM | TGI [16]: > 100 µM | TGI [17]: > 100 µM | TGI [18]: > 100 µM | TGI [19]: > 100 µM | TGI [20]: > 100 µM | TGI [21]: > 100 µM | TGI [22]: > 100 µM | TGI [23]: > 100 µM | TGI [24]: > 100 µM | TGI [25]: > 100 µM | TGI [26]: > 100 µM | TGI [27]: > 100 µM | TGI [28]: > 100 µM | TGI [29]: > 100 µM | TGI [30]: > 100 µM | TGI [31]: > 100 µM | TGI [32]: > 100 µM | TGI [33]: > 100 µM | TGI [34]: > 100 µM | TGI [35]: > 100 µM | TGI [36]: > 100 µM | TGI [37]: > 100 µM | TGI [38]: > 100 µM | TGI [39]: > 100 µM | TGI [40]: > 100 µM | TGI [41]: > 100 µM | TGI [42]: > 100 µM | TGI [43]: > 100 µM | TGI [44]: > 100 µM | TGI [45]: > 100 µM | TGI [46]: > 100 µM | TGI [47]: > 100 µM | TGI [48]: > 100 µM | TGI [49]: > 100 µM | TGI [50]: > 100 µM | TGI [51]: > 100 µM | TGI [52]: > 100 µM | TGI [53]: > 100 µM

CCOC(=O)C(=O)CC1=Nc2ccccc2SC(c2cccc(C)c2)C1 (stereo not drawn)
TGI [1]: 32 µM | TGI [3]: 31.3 µM | TGI [54]: 32 µM | TGI [55]: 60.5 µM | TGI [5]: 31.2 µM | TGI [6]: 32.2 µM | TGI [7]: 54 µM | TGI [8]: 36.2 µM | TGI [9]: 40.9 µM | TGI [10]: 30.5 µM | TGI [11]: 37.9 µM | TGI [13]: 35.7 µM | TGI [14]: 32.5 µM | TGI [15]: 38.7 µM | TGI [56]: 29.4 µM | TGI [17]: 35 µM | TGI [18]: 35.1 µM | TGI [19]: 29.8 µM | TGI [20]: 31.9 µM | TGI [21]: 35.3 µM | TGI [22]: 50.8 µM | TGI [23]: 27.8 µM | TGI [24]: 40.4 µM | TGI [25]: 31 µM | TGI [26]: 25.1 µM | TGI [27]: 29.3 µM | TGI [28]: 32.2 µM | TGI [29]: 43.4 µM | TGI [30]: 30.3 µM | TGI [33]: 32.4 µM | TGI [34]: 31.9 µM | TGI [35]: 34 µM | TGI [36]: 57.6 µM | TGI [37]: 63.1 µM | TGI [38]: 33.2 µM | TGI [39]: 47.9 µM | TGI [40]: 36.4 µM | TGI [41]: 32 µM | TGI [42]: 49.4 µM | TGI [57]: 30.9 µM | TGI [43]: 67.3 µM | TGI [44]: 35.7 µM | TGI [58]: 33 µM | TGI [45]: 32.4 µM | TGI [46]: 34.1 µM | TGI [47]: 31.8 µM | TGI [48]: 32.8 µM | TGI [50]: 28.7 µM | TGI [51]: 34.6 µM | TGI [52]: 31 µM
